Measurements reported in patent US8247211B2, “Glycopeptide antibiotics” (American Cyanamid Company, priority 2001, dated 2012).
≈ marks a conversion by molar mass, not a printed value.

How the values were obtained:
Experiment in all cases: In vitro antibacterial evaluation: minimum inhibitory concentration (MIC), broth dilution method
Format in all cases: cell-based
Streptococcus sp. = settings: broth dilution, 18 hours at 35° C.
Method in brief: (§1)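 Broth dilution per NCCLS M7-A2 in Muller-Hinton II […], inoculum 5×10^5 CFU/mL, antibiotic tested over 64-0.06 μg/mL. MIC is taken as the lowest concentration that inhibits growth. Panel includes recent clinical isolates resistant to methicillin, penicillin and/or vancomycin.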

Staphylococcus sp. = settings: strain SMITH GC 4543; broth dilution, 18 hours at 35° C.
Method in brief: as §1

Enterococcus sp. = settings: broth dilution, 18 hours at 35° C.
Method in brief: as §1

Escherichia coli = settings: broth dilution, 18 hours at 35° C.

## CC(c1ccccc1)C1NC(=O)CNC(=O)C(CO)NC(=O)C(C(O)C2CNC(=N)N2C2OC(CO)C(O)C(O)C2O)NC(=O)C(C(O)C2CNC(=N)N2)NC(=O)C(Cc2ccc3oc(-c4ccc(N(C)C)cc4)nc3c2)NC1=O (stereo not drawn) [Example 29, Cyclo[3-[2-[4-(dimethylamino)phenyl]-1,3-benzoxazol-5-yl]alanyl-3-(2-iminoimidazolidin-4-yl)-seryl-3-(3-hexopyranosyl-2-iminoimidazolidin-4-yl)serylserylglycyl-β-methylphenyl-alanyl]]
Streptococcus sp.; Streptococcus agalactiae (GC 4564)
  MIC Streptococcus agalactiae (GC 4564): 32 µg/mL (≈ 28.7 µM)
Streptococcus sp.; Streptococcus pneumoniae (ATCC 6301)
  MIC Streptococcus pneumoniae (ATCC 6301): 32 µg/mL (≈ 28.7 µM)
Streptococcus sp.; Streptococcus pneumoniae (GC 1894)
  MIC Streptococcus pneumoniae (GC 1894): 32 µg/mL (≈ 28.7 µM)
Streptococcus sp.; Streptococcus pneumoniae (GC 4565)
  MIC Streptococcus pneumoniae (GC 4565): 32 µg/mL (≈ 28.7 µM)
Streptococcus sp.; Streptococcus pyogenes (GC 4563)
  MIC Streptococcus pyogenes (GC 4563): 16 µg/mL (≈ 14.3 µM)
Streptococcus sp.
  MIC Streptococcus agalactiae (GC 4564): 32 µg/mL (≈ 28.7 µM)
  MIC Streptococcus pneumoniae (ATCC 6301): 32 µg/mL (≈ 28.7 µM)
  MIC Streptococcus pneumoniae (GC 1894): 32 µg/mL (≈ 28.7 µM)
  MIC Streptococcus pneumoniae (GC 4565): 32 µg/mL (≈ 28.7 µM)
  MIC Streptococcus pyogenes (GC 4563): 16 µg/mL (≈ 14.3 µM)
Staphylococcus sp.
  MIC Staphylococcus aureus-SMITH (GC 4543): 8 µg/mL (≈ 7.17 µM)
Enterococcus sp.; Enterococcus avium (GC 4558)
  MIC Enterococcus avium (GC 4558): 16 µg/mL (≈ 14.3 µM)
Enterococcus sp.; Enterococcus faecalis (ATCC 29212)
  MIC Enterococcus faecalis (ATCC 29212): 32 µg/mL (≈ 28.7 µM)
Enterococcus sp.; Enterococcus faecalis (GC 2242)
  MIC Enterococcus faecalis (GC 2242): 32 µg/mL (≈ 28.7 µM)
Enterococcus sp.; Enterococcus faecalis (GC 2691)
  MIC Enterococcus faecalis (GC 2691): 32 µg/mL (≈ 28.7 µM)
Enterococcus sp.; Enterococcus faecalis (GC 3059)
  MIC Enterococcus faecalis (GC 3059): 64 µg/mL (≈ 57.4 µM)
Enterococcus sp.; Enterococcus faecalis (GC 4552)
  MIC Enterococcus faecalis (GC 4552): 64 µg/mL (≈ 57.4 µM)
Enterococcus sp.; Enterococcus faecalis (GC 4553)
  MIC Enterococcus faecalis (GC 4553): 16 µg/mL (≈ 14.3 µM)
Enterococcus sp.; Enterococcus faecalis (GC 4554)
  MIC Enterococcus faecalis (GC 4554): 32 µg/mL (≈ 28.7 µM)
Enterococcus sp.; Enterococcus faecalis (GC 6189)
  MIC Enterococcus faecalis (GC 6189): 32 µg/mL (≈ 28.7 µM)
Enterococcus sp.; Enterococcus faecium (GC 2243)
  MIC Enterococcus faecium (GC 2243): 16 µg/mL (≈ 14.3 µM)
Enterococcus sp.; Enterococcus faecium (GC 4556)
  MIC Enterococcus faecium (GC 4556): 64 µg/mL (≈ 57.4 µM)
Enterococcus sp.; Enterococcus faecium (GC 4557)
  MIC Enterococcus faecium (GC 4557): 8 µg/mL (≈ 7.17 µM)
Enterococcus sp.
  MIC Enterococcus avium (GC 4558): 16 µg/mL (≈ 14.3 µM)
  MIC Enterococcus faecalis (ATCC 29212): 32 µg/mL (≈ 28.7 µM)
  MIC Enterococcus faecalis (GC 2242): 32 µg/mL (≈ 28.7 µM)
  MIC Enterococcus faecalis (GC 2691): 32 µg/mL (≈ 28.7 µM)
  MIC Enterococcus faecalis (GC 3059): 64 µg/mL (≈ 57.4 µM)
  MIC Enterococcus faecalis (GC 4552): 64 µg/mL (≈ 57.4 µM)
  MIC Enterococcus faecalis (GC 4553): 16 µg/mL (≈ 14.3 µM)
  MIC Enterococcus faecalis (GC 4554): 32 µg/mL (≈ 28.7 µM)
  MIC Enterococcus faecalis (GC 6189): 32 µg/mL (≈ 28.7 µM)
  MIC Enterococcus faecium (GC 2243): 16 µg/mL (≈ 14.3 µM)
  MIC Enterococcus faecium (GC 4556): 64 µg/mL (≈ 57.4 µM)
  MIC Enterococcus faecium (GC 4557): 8 µg/mL (≈ 7.17 µM)
Escherichia coli
  MIC Escherichia coli (ATCC 25922): 16 µg/mL (≈ 14.3 µM)
  MIC Escherichia coli (GC 4559): 16 µg/mL (≈ 14.3 µM)
  MIC Escherichia coli (GC 4560): 4 µg/mL (≈ 3.59 µM)
